Data set [1] deals with Mus musculus. Put plainly: Reduction of carrageenan-induced paw edema volume in mouse at 125 mg/kg, po after 3 hrs relative to control. Also on record: scale not given: the % may be the effect or the level left. Format: functional. For orientation: The carrageenan paw model is a standard test of acute inflammation.
In data set [2] the test system is RAW264.7. Put plainly: Cytotoxicity against mouse RAW264.7 cells at 100 uM by MTT assay. Format: cell-based. Particulars: raw264.7, 100 µM. In general terms: Formazan colour is commonly taken as a measure of viable cells.
Data set [3] deals with RAW264.7. Put plainly: Effect on IL1-beta production in mouse RAW264.7 cells at 100 uM. Format: functional.
Data set [4] relates to RAW264.7. Put plainly: Reduction of IL1-beta mRNA synthesis in mouse RAW264.7 cells at 100 uM. Format: functional, cell-based.
For data set [5], the system named is Mus musculus. Put plainly: Reduction of carrageenan-induced paw edema volume in mouse at 125 mg/kg, po after 1 hr relative to control. Format: functional. Also on record: scale not given: the % may be the effect or the level left.
The test system of data set [6] is Mus musculus. Put plainly: Reduction of carrageenan-induced paw edema volume in mouse at 125 mg/kg, po after 5 hrs relative to control. Format: functional. Also on record: scale not given: the % may be the effect or the level left.

The structures appear in SMILES notation. The source made the active and inactive calls. The calls are words filed in the database; no cut-off is given here.

For `COc1cc(C)c(OC)c(O)c1C(C)C` [ISOESPINTANOL], the results for the Activity in the data set on Mus musculus [1], with RAW264.7 [2] and with RAW264.7 [3] were 43%, “Not Active” and 72%, respectively. For the same compound, the outcome in the data set with RAW264.7 [4] was Active.

For `CC(C)[C@@]1(C)CCC([C@H]2CC[C@@]3(C)[C@@H]4CC[C@H]5C(C)(C)[C@@H](O)CC[C@@]56C[C@@]46CC[C@]23C)CO1` (stereo partly drawn) [BERENJENOL], the Activity in the data set with Mus musculus [5] is listed as 44%; in the data set with Mus musculus [1], 64%; in the data set on Mus musculus [6] it was 51%; in the data set on RAW264.7 [2] it was “Not Active”.

(Values after ChEMBL document CHEMBL1147136, “Constituents of Oxandra cf. xylopioides with anti-inflammatory activity” (J Nat Prod, 2007).)
